In ChEMBL document CHEMBL5550160, “Leveraging a rationally designed veliparib-based anilide eliciting anti-leukemic effects for the design of pH-responsive polymer nanoformulation” (Eur J Med Chem, 2024):
Active and inactive are the calls of the source. The calls are words filed in the database; no cut-off is given here.

What was measured:
[1] = test system: MDA-MB-231; experiment: Antiproliferative activity against human MDA-MB-231 cells assessed as inhibition of cell growth by MTT assay; assay type: functional, cell-based
[2] = target: Histone deacetylase 2 (Homo sapiens, UniProt Q92769); experiment: Inhibition of HDAC2 (unknown origin) assessed as residual activity at 4.12 x 10^-8M (reference value: 99.81%); settings: dose 4.12 10^-8M
Sequence of Histone deacetylase 2 (Q92769 whole entry, the tested form may be a part): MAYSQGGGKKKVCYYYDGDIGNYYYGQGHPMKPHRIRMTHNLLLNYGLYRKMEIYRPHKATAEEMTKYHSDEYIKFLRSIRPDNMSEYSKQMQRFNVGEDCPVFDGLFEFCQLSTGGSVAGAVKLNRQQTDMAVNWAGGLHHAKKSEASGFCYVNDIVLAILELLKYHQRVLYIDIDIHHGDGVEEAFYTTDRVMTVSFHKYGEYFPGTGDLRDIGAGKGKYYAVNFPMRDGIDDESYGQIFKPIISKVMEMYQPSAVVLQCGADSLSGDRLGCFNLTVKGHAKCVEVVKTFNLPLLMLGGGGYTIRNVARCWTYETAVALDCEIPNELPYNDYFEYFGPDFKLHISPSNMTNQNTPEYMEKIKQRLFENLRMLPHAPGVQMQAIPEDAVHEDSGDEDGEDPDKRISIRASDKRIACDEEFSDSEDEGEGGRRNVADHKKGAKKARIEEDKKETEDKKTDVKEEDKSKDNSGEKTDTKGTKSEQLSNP

[3] = target: Histone deacetylase 3 (Homo sapiens, UniProt O15379); experiment: Inhibition of HDAC3 (unknown origin) using p53 residues 379 to 382 [RHKK(Ac)] as fluorogenic substrate assessed as residual activity at 1.11 x 10^-6M (reference value: 103.08%); settings: dose 1.1 10^-6M
Sequence of Histone deacetylase 3 (O15379 whole entry, the tested form may be a part): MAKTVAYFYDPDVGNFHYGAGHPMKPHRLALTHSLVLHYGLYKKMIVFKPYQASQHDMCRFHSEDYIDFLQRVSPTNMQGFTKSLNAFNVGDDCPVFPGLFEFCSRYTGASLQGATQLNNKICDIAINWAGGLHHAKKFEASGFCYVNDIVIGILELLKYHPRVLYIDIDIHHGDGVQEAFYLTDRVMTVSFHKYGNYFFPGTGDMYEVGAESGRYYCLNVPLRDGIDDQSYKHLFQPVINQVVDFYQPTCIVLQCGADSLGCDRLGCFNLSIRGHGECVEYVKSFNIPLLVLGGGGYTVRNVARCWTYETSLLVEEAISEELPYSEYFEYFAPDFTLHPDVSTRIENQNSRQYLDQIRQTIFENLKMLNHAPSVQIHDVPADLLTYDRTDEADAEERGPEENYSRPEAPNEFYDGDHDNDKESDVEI

[4] = target: Histone deacetylase 5 (Homo sapiens) (UniProt Q9UQL6); experiment: Inhibition of HDAC5 (unknown origin) assessed as residual activity at 3.70 x 10^-7M (reference value: 100%); settings: dose 3.7 10^-7M
Sequence of Histone deacetylase 5 (Homo sapiens) (Q9UQL6 whole entry): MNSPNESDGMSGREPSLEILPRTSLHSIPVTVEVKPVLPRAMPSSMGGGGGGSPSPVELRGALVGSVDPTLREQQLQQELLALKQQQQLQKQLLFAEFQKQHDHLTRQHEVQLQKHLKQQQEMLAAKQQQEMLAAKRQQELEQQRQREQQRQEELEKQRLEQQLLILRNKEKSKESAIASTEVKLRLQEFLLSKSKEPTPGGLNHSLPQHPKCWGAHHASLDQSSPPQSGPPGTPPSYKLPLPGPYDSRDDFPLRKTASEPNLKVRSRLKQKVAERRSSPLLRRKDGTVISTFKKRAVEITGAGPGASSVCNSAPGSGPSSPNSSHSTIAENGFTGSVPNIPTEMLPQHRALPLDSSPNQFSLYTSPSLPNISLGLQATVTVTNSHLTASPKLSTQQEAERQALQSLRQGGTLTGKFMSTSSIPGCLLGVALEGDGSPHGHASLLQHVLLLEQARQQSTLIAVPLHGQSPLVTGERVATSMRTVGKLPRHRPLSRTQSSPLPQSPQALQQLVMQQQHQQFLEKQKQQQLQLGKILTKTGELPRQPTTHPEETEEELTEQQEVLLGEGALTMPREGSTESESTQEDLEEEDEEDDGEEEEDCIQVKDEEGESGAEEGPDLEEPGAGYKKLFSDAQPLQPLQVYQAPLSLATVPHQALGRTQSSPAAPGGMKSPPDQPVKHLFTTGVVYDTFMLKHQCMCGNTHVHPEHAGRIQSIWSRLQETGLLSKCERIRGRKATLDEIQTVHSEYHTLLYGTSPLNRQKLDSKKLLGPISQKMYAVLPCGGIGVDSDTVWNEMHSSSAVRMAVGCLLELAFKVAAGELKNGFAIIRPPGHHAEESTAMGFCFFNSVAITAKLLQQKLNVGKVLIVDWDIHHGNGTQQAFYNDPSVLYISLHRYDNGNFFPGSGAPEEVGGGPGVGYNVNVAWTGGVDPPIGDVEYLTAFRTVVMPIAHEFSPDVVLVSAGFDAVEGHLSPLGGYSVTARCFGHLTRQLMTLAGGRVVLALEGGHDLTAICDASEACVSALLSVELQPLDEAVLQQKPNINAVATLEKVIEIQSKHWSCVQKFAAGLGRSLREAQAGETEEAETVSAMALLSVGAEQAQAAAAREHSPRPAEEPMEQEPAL

[5] = target: T1, Histone deacetylase 7 (Homo sapiens) (UniProt Q8WUI4); experiment: Inhibition of HDAC7 (unknown origin) assessed as residual activity at 1.1 x 10^-6M (reference value: 102.66%); settings: dose 1.1 10^-6M
T1 sequence (whole entry): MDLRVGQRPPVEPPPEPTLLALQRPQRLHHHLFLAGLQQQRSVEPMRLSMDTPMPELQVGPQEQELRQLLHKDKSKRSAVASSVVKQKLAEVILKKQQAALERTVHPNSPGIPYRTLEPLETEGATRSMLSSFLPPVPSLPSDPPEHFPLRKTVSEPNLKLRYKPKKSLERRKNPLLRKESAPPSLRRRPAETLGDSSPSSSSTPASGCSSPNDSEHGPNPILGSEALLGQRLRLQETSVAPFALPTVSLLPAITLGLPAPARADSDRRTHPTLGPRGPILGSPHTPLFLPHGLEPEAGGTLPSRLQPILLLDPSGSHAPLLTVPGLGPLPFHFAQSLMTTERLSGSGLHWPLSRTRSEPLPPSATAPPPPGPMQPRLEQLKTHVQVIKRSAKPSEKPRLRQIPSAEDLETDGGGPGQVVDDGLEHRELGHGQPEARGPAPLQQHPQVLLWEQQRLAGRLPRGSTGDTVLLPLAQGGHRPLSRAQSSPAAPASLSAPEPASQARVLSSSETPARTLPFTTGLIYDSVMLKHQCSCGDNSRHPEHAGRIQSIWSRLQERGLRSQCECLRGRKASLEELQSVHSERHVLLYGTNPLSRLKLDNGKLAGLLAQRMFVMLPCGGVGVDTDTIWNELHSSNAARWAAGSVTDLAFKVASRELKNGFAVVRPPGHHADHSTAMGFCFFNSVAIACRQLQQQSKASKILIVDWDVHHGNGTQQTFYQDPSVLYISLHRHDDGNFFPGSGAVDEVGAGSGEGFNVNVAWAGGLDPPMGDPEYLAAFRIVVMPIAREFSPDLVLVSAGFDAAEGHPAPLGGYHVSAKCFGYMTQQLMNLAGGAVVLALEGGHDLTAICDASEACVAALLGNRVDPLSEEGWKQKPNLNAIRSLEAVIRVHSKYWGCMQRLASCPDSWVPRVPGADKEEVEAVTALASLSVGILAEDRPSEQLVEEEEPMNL

[6] = target: T2, Histone deacetylase 8 (Homo sapiens) (UniProt Q9BY41); experiment: Inhibition of HDAC8 (unknown origin) assessed as residual activity at 1.37 x 10^-8M (reference value: 100%); settings: dose 1.37 10^-8M
T2 sequence (whole entry): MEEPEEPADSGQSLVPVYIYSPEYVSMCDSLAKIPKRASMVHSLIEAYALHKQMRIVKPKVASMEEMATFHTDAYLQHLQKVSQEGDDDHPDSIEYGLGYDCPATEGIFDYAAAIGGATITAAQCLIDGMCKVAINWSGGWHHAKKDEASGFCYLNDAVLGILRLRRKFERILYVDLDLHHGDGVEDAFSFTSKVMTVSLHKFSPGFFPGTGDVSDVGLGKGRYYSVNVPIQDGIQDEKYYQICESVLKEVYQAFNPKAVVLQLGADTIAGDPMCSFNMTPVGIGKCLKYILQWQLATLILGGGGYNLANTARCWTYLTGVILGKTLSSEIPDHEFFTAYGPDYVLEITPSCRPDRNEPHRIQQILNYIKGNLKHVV

[7] = target: T2, Histone deacetylase 8 (Homo sapiens); experiment: Inhibition of HDAC8 (unknown origin) assessed as residual activity at 4.57 x 10^-9M (reference value: 100%); settings: dose 4.57 10^-9M
[8] = target: Histone deacetylase 9 (Homo sapiens) (UniProt Q9UKV0); experiment: Inhibition of HDAC9 (unknown origin) assessed as residual activity at 3.70 x 10^-7M (reference value: 97.55%); settings: dose 3.7 10^-7M
Sequence of Histone deacetylase 9 (Homo sapiens) (Q9UKV0 whole entry): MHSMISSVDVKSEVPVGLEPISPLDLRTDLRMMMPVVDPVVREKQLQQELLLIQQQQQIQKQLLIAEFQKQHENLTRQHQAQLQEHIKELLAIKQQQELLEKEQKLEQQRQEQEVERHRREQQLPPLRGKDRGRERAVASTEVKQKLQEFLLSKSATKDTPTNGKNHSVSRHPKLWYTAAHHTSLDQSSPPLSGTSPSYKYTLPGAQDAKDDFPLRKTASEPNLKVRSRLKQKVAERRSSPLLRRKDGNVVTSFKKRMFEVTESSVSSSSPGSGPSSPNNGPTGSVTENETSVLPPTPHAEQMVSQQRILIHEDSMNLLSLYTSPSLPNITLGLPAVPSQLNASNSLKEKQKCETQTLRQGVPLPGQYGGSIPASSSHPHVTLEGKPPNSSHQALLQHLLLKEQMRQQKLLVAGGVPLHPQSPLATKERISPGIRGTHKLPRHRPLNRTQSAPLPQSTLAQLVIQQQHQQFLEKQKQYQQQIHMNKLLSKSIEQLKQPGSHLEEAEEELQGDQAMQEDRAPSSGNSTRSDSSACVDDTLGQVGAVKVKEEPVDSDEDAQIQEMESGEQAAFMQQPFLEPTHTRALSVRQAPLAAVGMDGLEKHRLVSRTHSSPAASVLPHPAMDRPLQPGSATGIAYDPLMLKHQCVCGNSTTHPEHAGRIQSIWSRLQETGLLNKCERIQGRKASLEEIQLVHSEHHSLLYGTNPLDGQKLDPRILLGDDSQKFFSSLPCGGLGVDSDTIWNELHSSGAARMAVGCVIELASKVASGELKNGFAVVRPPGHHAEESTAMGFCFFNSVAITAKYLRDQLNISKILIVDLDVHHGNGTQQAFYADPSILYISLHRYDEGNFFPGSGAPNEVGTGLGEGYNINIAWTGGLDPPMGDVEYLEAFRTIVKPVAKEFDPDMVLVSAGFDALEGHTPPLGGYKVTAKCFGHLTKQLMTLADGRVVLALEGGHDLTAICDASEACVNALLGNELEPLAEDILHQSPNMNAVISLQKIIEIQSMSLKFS

[9] = target: T3, Polyamine deacetylase HDAC10 (Homo sapiens) (UniProt Q969S8); experiment: Inhibition of HDAC10 (unknown origin) assessed as residual activity at 3.33 x 10^-6M (reference value: 101.54%); settings: dose 3.33 10^-6M
T3 sequence (whole entry): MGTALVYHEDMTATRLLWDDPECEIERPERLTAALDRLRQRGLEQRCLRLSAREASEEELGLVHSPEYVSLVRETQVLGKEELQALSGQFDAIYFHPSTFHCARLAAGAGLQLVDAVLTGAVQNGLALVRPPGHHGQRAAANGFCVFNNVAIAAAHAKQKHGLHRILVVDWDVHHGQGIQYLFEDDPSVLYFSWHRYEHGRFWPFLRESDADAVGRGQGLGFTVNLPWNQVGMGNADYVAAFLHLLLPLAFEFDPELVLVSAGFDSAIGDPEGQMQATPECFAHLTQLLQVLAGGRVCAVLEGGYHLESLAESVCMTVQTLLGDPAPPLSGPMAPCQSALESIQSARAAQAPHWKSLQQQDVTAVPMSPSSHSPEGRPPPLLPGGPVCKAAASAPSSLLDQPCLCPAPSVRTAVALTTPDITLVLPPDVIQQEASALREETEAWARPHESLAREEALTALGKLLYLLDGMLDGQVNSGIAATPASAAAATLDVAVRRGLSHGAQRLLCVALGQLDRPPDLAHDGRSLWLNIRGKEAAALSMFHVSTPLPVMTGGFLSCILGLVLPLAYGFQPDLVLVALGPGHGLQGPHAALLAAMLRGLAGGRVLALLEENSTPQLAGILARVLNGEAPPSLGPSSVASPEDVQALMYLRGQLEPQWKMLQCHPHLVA

[10] = target: T3, Polyamine deacetylase HDAC10 (Homo sapiens); experiment: Inhibition of HDAC10 (unknown origin) assessed as residual activity at 5.08 x 10^-10M (reference value: 101.54%); settings: dose 5.08 10^-10M
[11] = test system: HL-60; experiment: Downregulation of HDAC1 protein expression in human HL-60 cells at 0.5 to 1 times IC50 by Western blot analysis; assay type: functional, cell-based
[12] = test system: HL-60; experiment: Upregulation of gammaH2AX protein expression in human HL-60 cells at 0.5 to 1 times IC50 by Western blot analysis; assay type: functional, cell-based
[13] = test system: HL-60; experiment: Induction of cell cycle arrest in G0/G1 phase in human HL-60 cells assessed as downregulation of cyclin D1 protein expression at 0.5 to 1 times IC50 by Western blot analysis; assay type: functional, cell-based

- IC50 [1]: > 10 µM
- Activity [2]: 69.7%
- Activity [3]: 21.7%
- Activity [4]: 77.6%
- Activity [5]: 78.2%
- Activity [6]: 104%
- Activity [7]: 103%
- Activity [8]: 92.6%
- Activity [9]: 101%
- Activity [10]: 101%
SMILES: NC(=O)c1cccc2[nH]c(-c3ccc(NCc4ccc(C(=O)Nc5ccccc5N)cc4)cc3)nc12
- Activity [11]: Active
- Activity [12]: Active
- Activity [13]: Active
